Measurements from ChEMBL document CHEMBL1143759, “Losartan and its interaction with copper(II): biological effects” (2007).

Legend:
[1] = Inhibition of cell proliferation of rat UMR106 cells at 500 uM; type: functional; design: scale not given: the % may be the effect or the level left
[2] = Inhibition of cell proliferation of mouse MC3T3E1 cells at 500 uM; type: functional, MC3T3-E1; design: scale not given: the % may be the effect or the level left

Question: Which results are given for `CCCCc1nc(Cl)c(CO)n1Cc1ccc(-c2ccccc2-c2nnn[n-]2)cc1.[K+]` [LOSARTAN POTASSIUM]?
Answer: Activity [1]: 10%; Activity [2]: 10%
